The record followed here is PMC4411898, “Impact of kinesin Eg5 inhibition by 3,4-dihydropyrimidin-2(1H)-one derivatives on various breast cancer cell features” (BMC Cancer, 2015).

SMILES strings stand for the structures.

The subject of the assay is MCF-7 cells. As to the kind of experiment: CFSE proliferation assay, MCF-7. Type of assay: cell-based, human. Particulars: 72 h, IC50 concentration of each compound. Here is the method: For proliferation assays, cells were treated with IC50 concentrations of each compound. Adherent and floating cells were harvested at the same tube and pelleted by centrifugation at 300 g for 5 minutes and stained. Data acquisition of these two fractions put together was performed on a FACSCalibur flow cytometer using CellQuest software and analysed using the FloJo Software. […] After adhesion, cells were treated with DHPMs or maintained in culture medium only (control) for 72 h. The percentage of proliferative cells was calculated based on the CFSE fluorescence profile analysis of the tested samples compared to that of the fixed undivided control cells (treated with 10 μM of colchicine) using the FlowJo software.

In the case of `CCOC(=O)C1=C(C)NC(=S)NC1c1ccccc1O` (stereo not shown) [Compound 4p], the “Inhibition of cell proliferation, MCF-7” value was “Approximately 50%”.
